We go through 16 compounds from patent US11986532B2 (Arvinas Operations, Inc., priority 2021, dated 2024).

The term DC50 denotes the concentration at which degradation of the target reaches its halfway point. One may read the Dmax as the largest share of the target that was removed.

For this assay, the target named is T1, BCL6 (Homo sapiens, UniProt P41182).
T1 construct: endogenous in cells; host or cells: T47D breast cancer epithelial cells
The assay is described as follows: Immunofluorescence protocol for high content imaging of BCL6 (degradation) in T47D cells, 3 days compound treatment. It counts as cell-based. To be noted: T47D cells, 3 days compound treatment; for DC50: read-out: Mean DC50 (nM)* category; for Dmax: read-out: Mean Dmax (%)** category. The essentials:
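T47D cells in RPMI1640-10% FBS were treated with an 11-point 3-fold dilution series (final top 0.1 or 1 μM) for 3 days at 37° C. After PFA fixation and Triton permeabilization, cells were immunostained with rabbit anti-BCL6 (1:300, overnight 4° C), Alexa-488 secondary, CellMask-647 and Hoechst, then imaged at 10×, 4 fields/well.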

On to `CNC(=O)COc1cc2cc(Nc3nc(N4CCC(CN5CCC6(CC5)CN(c5ccc7c(c5)C(=O)N(C5CCC(=O)NC5=O)C7=O)C6(C)C)CC4)ncc3Cl)ccc2n(C(C)C)c1=O` (centres unmarked) [Compound 133, 2-{[6-({5-chloro-2-[4-({2-[2-(2,6-dioxopiperidin-3-yl)-1,3-dioxo-2,3-dihydro-1H-isoindol-5-yl]-1,1-dimethyl-2,7-diazaspiro[3.5]nonan-7-yl}methyl)piperidin-1-yl]pyrimidin-4-yl}amino)-2-oxo-1-(propan-2-yl)-1,2-dihydroquinolin-3-yl]oxy}-N-methylacetamide], for which the 50% degradation concentration (DC50) was under 10 nM and the Dmax was in the range of 50 to 70%.
In the case of `CNC(=O)COc1cc2cc(Nc3nc(N4CCC(CN5CCC6(CN(c7ccc8c(c7)C(=O)N(C7CCC(=O)NC7=O)C8=O)C6)C(F)C5)CC4)ncc3Cl)ccc2n(C(C)C)c1=O` (centres unmarked) [Compound 134, 2-{[6-({5-chloro-2-[4-({2-[2-(2,6-dioxopiperidin-3-yl)-1,3-dioxo-2,3-dihydro-1H-isoindol-5-yl]-5-fluoro-2,7-diazaspiro[3.5]nonan-7-yl}methyl)piperidin-1-yl]pyrimidin-4-yl}amino)-2-oxo-1-(propan-2-yl)-1,2-dihydroquinolin-3-yl]oxy}-N-methylacetamide], the DC50 is under 10 nM and the maximal degradation (Dmax) is under 50%.
Taken in the same sequence, the figures for `CNC(=O)COc1cc2cc(Nc3nc(N4CCC(CN5CC6(CCN(c7ccc8c(c7)C(=O)N(C7CCC(=O)NC7=O)C8=O)CC6(F)F)C5)CC4)ncc3Cl)ccc2n(C(C)C)c1=O` (centres unmarked) [Compound 135, 2-{[6-({5-chloro-2-[4-({7-[2-(2,6-dioxopiperidin-3-yl)-1,3-dioxo-2,3-dihydro-1H-isoindol-5-yl]-5,5-difluoro-2,7-diazaspiro[3.5]nonan-2-yl}methyl)piperidin-1-yl]pyrimidin-4-yl}amino)-2-oxo-1-(propan-2-yl)-1,2-dihydroquinolin-3-yl]oxy}-N-methylacetamide] were under 10 nM and 50 to 70%.
In the case of `CNC(=O)COc1cc2cc(Nc3nc(N4CCC(CN5CC6(CCN(c7ccc8c(c7)CN(C7CCC(=O)NC7=O)C8=O)CC6(F)F)C5)CC4)ncc3Cl)ccc2n(C(C)C)c1=O` (centres unmarked) [Compound 136, 2-{[6-({5-chloro-2-[4-({7-[2-(2,6-dioxopiperidin-3-yl)-1-oxo-2,3-dihydro-1H-isoindol-5-yl]-5,5-difluoro-2,7-diazaspiro[3.5]nonan-2-yl}methyl)piperidin-1-yl]pyrimidin-4-yl}amino)-2-oxo-1-(propan-2-yl)-1,2-dihydroquinolin-3-yl]oxy}-N-methylacetamide], the DC50 is under 10 nM and the greatest degradation seen (Dmax) fell in the range of 50 to 70%.
With `CNC(=O)COc1cc2cc(Nc3nc(N4CCC(O[C@H]5C[C@H](N6CCC(c7ccc8c(c7)C(=O)N(C7CCC(=O)NC7=O)C8=O)C(F)(F)C6)C5)CC4)ncc3Cl)ccc2n(C(C)C)c1=O` (some centres unmarked) [Compound 137, 2-({6-[(5-chloro-2-{4-[(1r,3r)-3-{4-[2-(2,6-dioxopiperidin-3-yl)-1,3-dioxo-2,3-dihydro-1H-isoindol-5-yl]-3,3-difluoropiperidin-1-yl}cyclobutoxy]piperidin-1-yl}pyrimidin-4-yl)amino]-2-oxo-1-(propan-2-yl)-1,2-dihydroquinolin-3-yl}oxy)-N-methylacetamide], the DC50 is at least 100 nM and the greatest degradation seen (Dmax) is at least 70%.
`CNC(=O)COc1cc2cc(Nc3nc(N4CCC(CN5CCC6(CCN(c7cc(F)cc8c7C(=O)N(C7CCC(=O)NC7=O)C8=O)C6)C5)CC4)ncc3Cl)ccc2n(C(C)C)c1=O` (centres unmarked) [Compound 138, 2-{[6-({5-chloro-2-[4-({7-[2-(2,6-dioxopiperidin-3-yl)-6-fluoro-1,3-dioxo-2,3-dihydro-1H-isoindol-4-yl]-2,7-diazaspiro[4.4]nonan-2-yl}methyl)piperidin-1-yl]pyrimidin-4-yl}amino)-2-oxo-1-(propan-2-yl)-1,2-dihydroquinolin-3-yl]oxy}-N-methylacetamide]: the DC50 is under 10 nM and the Dmax was 50 to 70%.
Consider `CNC(=O)COc1cc2cc(Nc3nc(N4CCC(CN5CCC6(CCN(c7c(F)ccc8c7C(=O)N(C7CCC(=O)NC7=O)C8=O)C6)C5)CC4)ncc3Cl)ccc2n(C(C)C)c1=O` (centres unmarked) [Compound 139, 2-{[6-({5-chloro-2-[4-({7-[2-(2,6-dioxopiperidin-3-yl)-5-fluoro-1,3-dioxo-2,3-dihydro-1H-isoindol-4-yl]-2,7-diazaspiro[4.4]nonan-2-yl}methyl)piperidin-1-yl]pyrimidin-4-yl}amino)-2-oxo-1-(propan-2-yl)-1,2-dihydroquinolin-3-yl]oxy}-N-methylacetamide], for which the DC50 was under 10 nM and the Dmax was 50 to 70%.
With `CCn1c(=O)c(OCC(=O)NC)cc2cc(Nc3nc(N4CCC(O[C@H]5C[C@H](N6CCC(c7cccc8c7C(=O)N(C7CCC(=O)NC7=O)C8=O)CC6)C5)CC4)ncc3Cl)ccc21` (some centres unmarked) [Compound 140, 2-({6-[(5-chloro-2-{4-[(1r,3r)-3-{4-[2-(2,6-dioxopiperidin-3-yl)-1,3-dioxo-2,3-dihydro-1H-isoindol-4-yl]piperidin-1-yl}cyclobutoxy]piperidin-1-yl}pyrimidin-4-yl)amino]-1-ethyl-2-oxo-1,2-dihydroquinolin-3-yl}oxy)-N-methylacetamide], the DC50 was 50 to 100 nM and the Dmax was at least 70%.
`CNC(=O)COc1cc2cc(Nc3nc(N4CCC[C@H](COc5cccc6c5C(=O)N(C5CCC(=O)NC5=O)C6=O)C4)ncc3Cl)ccc2n(CCN(C)C)c1=O` (stereo partly drawn) [Compound 141, 2-{[6-({5-chloro-2-[(3S)-3-({[2-(2,6-dioxopiperidin-3-yl)-1,3-dioxo-2,3-dihydro-1H-isoindol-4-yl]oxy}methyl)piperidin-1-yl]pyrimidin-4-yl}amino)-1-[2-(dimethylamino)ethyl]-2-oxo-1,2-dihydroquinolin-3-yl]oxy}-N-methylacetamide]: the half-maximal degradation concentration (DC50) is at least 100 nM.
In the case of `CNC(=O)COc1cc2cc(Nc3nc(N4CCOC5(CN(CC6CCN(c7ccc8c(c7)C(=O)N(C7CCC(=O)NC7=O)C8=O)CC6)C5)C4)ncc3Cl)ccc2n(C(C)C)c1=O` (centres unmarked) [Compound 142, 2-{[6-({5-chloro-2-[2-({1-[2-(2,6-dioxopiperidin-3-yl)-1,3-dioxo-2,3-dihydro-1H-isoindol-5-yl]piperidin-4-yl}methyl)-5-oxa-2,8-diazaspiro[3.5]nonan-8-yl]pyrimidin-4-yl}amino)-2-oxo-1-(propan-2-yl)-1,2-dihydroquinolin-3-yl]oxy}-N-methylacetamide], the DC50 is at least 100 nM.
On the same count and under the same terms, as for `CNC(=O)COc1cc2cc(Nc3nc(N4CCOC5(CN(CC6CCN(c7cccc8c7C(=O)N(C7CCC(=O)NC7=O)C8=O)CC6)C5)C4)ncc3Cl)ccc2n(C(C)C)c1=O` (centres unmarked) [Compound 143, 2-{[6-({5-chloro-2-[2-({1-[2-(2,6-dioxopiperidin-3-yl)-1,3-dioxo-2,3-dihydro-1H-isoindol-4-yl]piperidin-4-yl}methyl)-5-oxa-2,8-diazaspiro[3.5]nonan-8-yl]pyrimidin-4-yl}amino)-2-oxo-1-(propan-2-yl)-1,2-dihydroquinolin-3-yl]oxy}-N-methylacetamide], the figure is at least 100 nM.
For `CNC(=O)COc1cc2cc(Nc3nc(N4CCOC5(CN(CCC6CCN(c7cccc8c7C(=O)N(C7CCC(=O)NC7=O)C8=O)CC6)C5)C4)ncc3Cl)ccc2n(C(C)C)c1=O` (centres unmarked) [Compound 144, 2-{[6-({5-chloro-2-[2-(2-{1-[2-(2,6-dioxopiperidin-3-yl)-1,3-dioxo-2,3-dihydro-1H-isoindol-4-yl]piperidin-4-yl}ethyl)-5-oxa-2,8-diazaspiro[3.5]nonan-8-yl]pyrimidin-4-yl}amino)-2-oxo-1-(propan-2-yl)-1,2-dihydroquinolin-3-yl]oxy}-N-methylacetamide], the DC50 is at least 100 nM and the greatest degradation seen (Dmax) was at least 70%.
As to `CNC(=O)COc1cc2cc(Nc3nc(N4CCOC5(CN(CCC6CCN(c7ccc8c(c7)C(=O)N(C7CCC(=O)NC7=O)C8=O)CC6)C5)C4)ncc3Cl)ccc2n(C(C)C)c1=O` (centres unmarked) [Compound 145, 2-{[6-({5-chloro-2-[2-(2-{1-[2-(2,6-dioxopiperidin-3-yl)-1,3-dioxo-2,3-dihydro-1H-isoindol-5-yl]piperidin-4-yl}ethyl)-5-oxa-2,8-diazaspiro[3.5]nonan-8-yl]pyrimidin-4-yl}amino)-2-oxo-1-(propan-2-yl)-1,2-dihydroquinolin-3-yl]oxy}-N-methylacetamide], the half-maximal degradation concentration (DC50) is under 10 nM.
In the case of `CNC(=O)COc1cc2cc(Nc3ncncc3Cl)ccc2n(CCOc2ccc3c(c2)C(=O)N(C2CCC(=O)NC2=O)C3=O)c1=O` (centres unmarked) [Compound 146, 2-({6-[(5-chloropyrimidin-4-yl)amino]-1-(2-{[2-(2,6-dioxopiperidin-3-yl)-1,3-dioxo-2,3-dihydro-1H-isoindol-5-yl]oxy}ethyl)-2-oxo-1,2-dihydroquinolin-3-yl}oxy)-N-methylacetamide], the half-maximal degradation concentration (DC50) was under 10 nM.
Consider `CNC(=O)COc1cc2cc(Nc3nc(C)ncc3Cl)ccc2n(CCOc2ccc3c(c2)C(=O)N(C2CCC(=O)NC2=O)C3=O)c1=O` (centres unmarked) [Compound 147, 2-({6-[(5-chloro-2-methylpyrimidin-4-yl)amino]-1-(2-{[2-(2,6-dioxopiperidin-3-yl)-1,3-dioxo-2,3-dihydro-1H-isoindol-5-yl]oxy}ethyl)-2-oxo-1,2-dihydroquinolin-3-yl}oxy)-N-methylacetamide], for which the DC50 was under 10 nM.
Regarding `CNC(=O)COc1cc2cc(Nc3nc(N4CCC(OC5CCC(N6CCC(c7cccc8c7C(=O)N(C7CCC(=O)NC7=O)C8=O)CC6)C5)CC4)ncc3Cl)ccc2n(C(C)C)c1=O` (centres unmarked) [Compound 148, 2-({6-[(5-chloro-2-{4-[(3-{4-[2-(2,6-dioxopiperidin-3-yl)-1,3-dioxo-2,3-dihydro-1H-isoindol-4-yl]piperidin-1-yl}cyclopentyl)oxy]piperidin-1-yl}pyrimidin-4-yl)amino]-2-oxo-1-(propan-2-yl)-1,2-dihydroquinolin-3-yl}oxy)-N-methylacetamide], the DC50 lay within 50 to 100 nM and the maximal degradation (Dmax) was under 50%.
